Key:
Conditions in all cases: exposure time: 72 h
E21 [1] = patient-derived glioblastoma stem cells of mesenchymal subtype; assay: surviving fraction (nuclei count normalised to DMSO); higher = more cells surviving (less toxic)
E13 [2] = patient-derived glioblastoma stem cells of classical subtype; assay: as above
FT3469 [3] = normal neural stem cell line; assay: as above
E34 [4] = patient-derived glioblastoma stem cells of proneural subtype; assay: as above
E28 [5] = patient-derived glioblastoma stem cells of classical subtype; assay: as above
E31 [6] = patient-derived glioblastoma stem cells of proneural subtype; assay: as above
E57 [7] = patient-derived glioblastoma stem cells of mesenchymal subtype; assay: as above
E21 [8] = assay: phenotypic distance (Euclidean, principal components) from DMSO controls (arbitrary units); higher = stronger morphological change
E13 [9] = assay: as above
FT3469 [10] = assay: as above
E34 [11] = assay: as above
E28 [12] = assay: as above
E31 [13] = assay: as above
E57 [14] = assay: as above
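Wherever phenotypic distance (Euclidean, principal components) from DMSO controls is given: cell Painting imaging in 384-well plates, CellProfiler features reduced to at least 20 principal components, Euclidean distance versus same-plate DMSO vehicle wells (0.1% v/v), median over six images per well.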
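Wherever surviving fraction (nuclei count normalised to DMSO) is given: nuclei counted by high-content imaging of Hoechst-stained cells in laminin-coated 384-well plates, relative to 0.1% DMSO vehicle wells, with staurosporine as cell-death control.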

Cc1cccn2c(=O)c(-c3nnn[nH]3)cnc12 [Pemirolast potassium]
Conditions | phenotypic distance | surviving fraction
E13 [2], 4.1 nM | – | 0.925
E13 [2], 12.3 nM | – | 0.971
E13 [2], 37 nM | – | 1
E13 [2], 111.1 nM | – | 1.04
E13 [2], 333.3 nM | – | 0.947
E13 [2], 1000 nM | – | 0.974
E13 [2], 3000 nM | – | 1.18
E13 [9], 4.1 nM | 0.849 | –
E13 [9], 12.3 nM | 0.649 | –
E13 [9], 37 nM | 2.3 | –
E13 [9], 111.1 nM | 0.669 | –
E13 [9], 333.3 nM | 3.24 | –
E13 [9], 1000 nM | 0.451 | –
E13 [9], 3000 nM | 0.784 | –
E21 [1], 4.1 nM | – | 0.923
E21 [1], 12.3 nM | – | 0.982
E21 [1], 37 nM | – | 0.908
E21 [1], 111.1 nM | – | 0.88
E21 [1], 333.3 nM | – | 0.953
E21 [1], 1000 nM | – | 1.01
E21 [1], 3000 nM | – | 1.1
E21 [8], 4.1 nM | 0.761 | –
E21 [8], 12.3 nM | 0.597 | –
E21 [8], 37 nM | 3.74 | –
E21 [8], 111.1 nM | 0.731 | –
E21 [8], 333.3 nM | 0.31 | –
E21 [8], 1000 nM | 0.294 | –
E21 [8], 3000 nM | 0.896 | –
E28 [5], 4.1 nM | – | 1.07
E28 [5], 12.3 nM | – | 1.11
E28 [5], 37 nM | – | 1.06
E28 [5], 111.1 nM | – | 0.959
E28 [5], 333.3 nM | – | 1.14
E28 [5], 1000 nM | – | 1.05
E28 [5], 3000 nM | – | 1.22
E28 [12], 4.1 nM | 0.658 | –
E28 [12], 12.3 nM | 0.636 | –
E28 [12], 37 nM | 0.677 | –
E28 [12], 111.1 nM | 0.665 | –
E28 [12], 333.3 nM | 0.613 | –
E28 [12], 1000 nM | 0.514 | –
E28 [12], 3000 nM | 0.875 | –
E31 [6], 4.1 nM | – | 0.909
E31 [6], 12.3 nM | – | 0.917
E31 [6], 37 nM | – | 0.897
E31 [6], 111.1 nM | – | 0.921
E31 [6], 333.3 nM | – | 1.21
E31 [6], 1000 nM | – | 0.987
E31 [6], 3000 nM | – | 1.12
E31 [13], 4.1 nM | 1.22 | –
E31 [13], 12.3 nM | 0.493 | –
E31 [13], 37 nM | 0.804 | –
E31 [13], 111.1 nM | 0.401 | –
E31 [13], 333.3 nM | 0.814 | –
E31 [13], 1000 nM | 0.403 | –
E31 [13], 3000 nM | 0.73 | –
E34 [4], 4.1 nM | – | 1.09
E34 [4], 12.3 nM | – | 0.99
E34 [4], 37 nM | – | 1.04
E34 [4], 111.1 nM | – | 0.927
E34 [4], 333.3 nM | – | 1.15
E34 [4], 1000 nM | – | 1.03
E34 [4], 3000 nM | – | 1.11
E34 [11], 4.1 nM | 1.15 | –
E34 [11], 12.3 nM | 0.672 | –
E34 [11], 37 nM | 0.605 | –
E34 [11], 111.1 nM | 0.603 | –
E34 [11], 333.3 nM | 0.641 | –
E34 [11], 1000 nM | 0.674 | –
E34 [11], 3000 nM | 0.547 | –
E57 [7], 4.1 nM | – | 0.965
E57 [7], 12.3 nM | – | 0.992
E57 [7], 37 nM | – | 0.959
E57 [7], 111.1 nM | – | 1.09
E57 [7], 333.3 nM | – | 0.986
E57 [7], 1000 nM | – | 1.01
E57 [7], 3000 nM | – | 1.01
E57 [14], 4.1 nM | 0.873 | –
E57 [14], 12.3 nM | 0.412 | –
E57 [14], 37 nM | 0.46 | –
E57 [14], 111.1 nM | 0.618 | –
E57 [14], 333.3 nM | 0.603 | –
E57 [14], 1000 nM | 0.198 | –
E57 [14], 3000 nM | 0.693 | –
FT3469 [3], 4.1 nM | – | 1.01
FT3469 [3], 12.3 nM | – | 0.959
FT3469 [3], 37 nM | – | 1.08
FT3469 [3], 111.1 nM | – | 1.07
FT3469 [3], 333.3 nM | – | 1.19
FT3469 [3], 1000 nM | – | 1.09
FT3469 [3], 3000 nM | – | 1.23
FT3469 [10], 4.1 nM | 1.49 | –
FT3469 [10], 12.3 nM | 0.577 | –
FT3469 [10], 37 nM | 0.829 | –
FT3469 [10], 111.1 nM | 0.485 | –
FT3469 [10], 333.3 nM | 0.522 | –
FT3469 [10], 1000 nM | 0.561 | –
FT3469 [10], 3000 nM | 1.16 | –

Reference: the supplement of paper PMC13207355
